Values quoted from earlier work in patent publication US12029226B2, “Concentrate for preparing a drinkable solution (II)” (Alzchem Trostberg GmbH, priority 2019, dated 2024).

Conditions: literature value

SMILES	pKs value
CC(O)C(=O)O (centres unmarked) [lactic acid]	3.90+/−0.11
O=CO [formic acid]	3.77
